Literature values in article PMC3963473, “Structure–Activity Relationship Studies of Pyrrolone Antimalarial Agents” (Chemmedchem, 2013).

Tested on: Plasmodium berghei
Design: method as in PMID 23517371
Conditions: P. berghei mouse model; dosed intraperitoneally; cited from earlier work

CCOC(=O)C1=C(C)N/C(=C/c2cc(C)n(-c3ccccc3C(F)(F)F)c2C)C1=O [TDR32750]
depression of parasitaemia: > 99%
